Test results: patent US12729377B2, “RNAi agents and compositions for inhibiting expression of angiopoietin-like 3 (ANGPTL3), and methods of use” (Arrowhead Pharmaceuticals, Inc., priority 2017, dated 2026)
In the oligonucleotide strings, read from the 5' end, every base follows the letter of its sugar. An asterisk marks phosphorothioate; unmarked linkages are phosphodiester. Other units and linkages are bracketed, terminal groups are in braces. A string of capitals states the bases alone. {NAG37} = tridentate N-acetyl-galactosamine targeting ligand, structure (NAG37)s; [invAb] = inverted abasic unit; m = 2'-O-methyl; f = 2'-fluoro

Assays:
Format in all cases: in vivo, cynomolgus macaque (Macaca fascicularis)
[1] = test system: ANGPTL3 protein; experiment: Example 8: serum ANGPTL3 protein by ELISA in cynomolgus monkeys; conditions: for Avg ANGPTL3 protein normalized to pre-treatment: 3.0 mg/kg single SC injection day 1, cynos, n=2
Procedure: (§1) Additional ANGPTL3 RNAi agents were evaluated in cynomolgus monkeys. On day 1, cynomolgus macaque (Macaca fascicularis) primates (also referred to herein as “cynos”) were administered a single subcutaneous injection of 0.3 mL/kg (approximately 1-2 mL volume, depending on animal mass) containing 3.0 mg/kg of one of ANGPTL3 RNAi agent AD05577, AD05307, AD05488, AD05654, or AD05659, each formulated in saline.
(§2) Two (2) cynos in each group were tested (n=2). Blood samples were drawn and serum samples were analyzed on days −8 (pre-dose), 1 (pre-dose), 8, 15, 22, 29, and 36. Cynos were fasted overnight prior to each collection. ANGPTL3 protein levels in serum were measured by ELISA assay (R&D Systems), according to the manufacturer's recommendations. Triglycerides, total cholesterol, high-density lipoprotein (HDL), and low-density lipoprotein (LDL) in serum were measured on a Cobas® Integra 400 (Roche Diagnostics), according to the manufacturer's recommendations.
(§3) The ANGPTL3 protein levels, triglyceride levels, total cholesterol levels, HDL levels, and LDL levels for each animal were normalized. For normalization, the level of ANGPTL3 protein, triglyceride, HDL, and total cholesterol, respectively, for each animal at a time point, was divided by the average pre-treatment level of expression in that animal (in this case at days −8, and 1 (pre-dose)) to determine the ratio of expression “normalized to pre-treatment.”

[2] = test system: ANGPTL3 gene; experiment: Example 8: serum total cholesterol in cynomolgus monkeys; conditions: 3.0 mg/kg single SC injection day 1, cynos, n=2
Procedure: as §1, §2, §3

[3] = test system: ANGPTL3 gene; experiment: Example 8: serum triglycerides in cynomolgus monkeys; conditions: 3.0 mg/kg single SC injection day 1, cynos, n=2
Procedure: as §1, §2, §3

[4] = test system: ANGPTL3 gene; experiment: Example 8: serum HDL in cynomolgus monkeys; conditions: 3.0 mg/kg single SC injection day 1, cynos, n=2
Procedure: as §1, §2, §3

[5] = test system: ANGPTL3 gene; experiment: Example 8: serum LDL in cynomolgus monkeys; conditions: 3.0 mg/kg single SC injection day 1, cynos, n=2
Procedure: as §1, §2, §3

AD05488: RNAi agent duplex: antisense AM07235-AS, sense AM07234-SS (antisense mU*fA*mC*fUmGfAmUfCmAfAmAfUmAfUmGfUmUfGmAfG*mC; sense {NAG37}*[invAb]*mGmCmUmCmAmAmCmAfUfAfUmUmUmGmAmUmCmAmGmUmA*[invAb])
Avg ANGPTL3 protein normalized to pre-treatment ([1]; Day 8): 0.423 | Avg ANGPTL3 protein normalized to pre-treatment ([1]; Day 15): 0.334 | Avg ANGPTL3 protein normalized to pre-treatment ([1]; Day 22): 0.343 | Avg ANGPTL3 protein normalized to pre-treatment ([1]; Day 29): 0.276 | Avg ANGPTL3 protein normalized to pre-treatment ([1]; Day 36): 0.229 | reduction in ANGPTL3 protein compared to pre-treatment ([1]; all measured time points, single 3.0 mg/kg subcutaneous, cynomolgus monkeys): reduction | Avg Total Chol normalized to pre-treatment ([2]; Day 8): 0.840 | Avg Total Chol normalized to pre-treatment ([2]; Day 15): 0.779 | Avg Total Chol normalized to pre-treatment ([2]; Day 22): 0.743 | Avg Total Chol normalized to pre-treatment ([2]; Day 29): 0.674 | Avg Total Chol normalized to pre-treatment ([2]; Day 36): 0.722 | Avg TG normalized to pre-treatment ([3]; Day 8): 0.727 | Avg TG normalized to pre-treatment ([3]; Day 15): 0.586 | Avg TG normalized to pre-treatment ([3]; Day 22): 0.399 | Avg TG normalized to pre-treatment ([3]; Day 29): 0.534 | Avg TG normalized to pre-treatment ([3]; Day 36): 0.364 | Average HDL Normalized to Pre-Treatment ([4]; Day 8): 0.832 | Average HDL Normalized to Pre-Treatment ([4]; Day 15): 0.695 | Average HDL Normalized to Pre-Treatment ([4]; Day 22): 0.688 | Average HDL Normalized to Pre-Treatment ([4]; Day 29): 0.657 | Average HDL Normalized to Pre-Treatment ([4]; Day 36): 0.622 | Average LDL Normalized to Pre-Treatment ([5]; Day 8): 0.934 | Average LDL Normalized to Pre-Treatment ([5]; Day 15): 0.926 | Average LDL Normalized to Pre-Treatment ([5]; Day 22): 0.891 | Average LDL Normalized to Pre-Treatment ([5]; Day 29): 0.872 | Average LDL Normalized to Pre-Treatment ([5]; Day 36): 0.805
